Source: paper PMC9030254, “Target Hopping from Protein Kinases to PXR: Identification of Small-Molecule Protein Kinase Inhibitors as Selective Modulators of Pregnane X Receptor from TüKIC Library” (Cells, 2022)

What was measured:
PXR LBD = molecular target: T1, PXR LBD (Homo sapiens, UniProt O75469); assay: Mammalian two-hybrid PXR LBD assembly assay; type: cell-based; details: HepG2, 10 µM, 24 h
T1 construct: GAL4-DBD/PXR(132–188); VP16-AD/PXR(189–434); expressed in transfected cells; host or cells: HepG2
T1 sequence (O75469 132-188): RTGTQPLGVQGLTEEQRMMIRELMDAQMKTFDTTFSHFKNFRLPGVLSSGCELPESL
T1 sequence (O75469 189-434): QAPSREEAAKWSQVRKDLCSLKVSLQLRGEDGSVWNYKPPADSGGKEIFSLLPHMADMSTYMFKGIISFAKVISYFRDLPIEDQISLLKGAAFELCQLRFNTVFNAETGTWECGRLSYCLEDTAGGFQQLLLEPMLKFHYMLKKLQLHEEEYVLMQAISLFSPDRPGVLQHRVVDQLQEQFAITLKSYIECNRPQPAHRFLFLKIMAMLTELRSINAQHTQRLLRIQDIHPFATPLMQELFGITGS
Procedure: For the mammalian two-hybrid PXR ligand-binding domain assembly assay, 0.24 µg pGL4-G5, 0.01 µg pMetLuc2control, and 0.03 µg each of expression plasmids encoding GAL4-DBD/PXR(132–188) and VP16-AD/PXR(189–434) fusion proteins were used per well. Otherwise, batch transfection was performed as above with HepG2 cells.
Figure 5 PXR binding of phenylaminobenzosuberones is indicated by cellular PXR LBD assembly assay and inhibition of LBP-filled PXR mutant (A) Novel compounds induce PXR LBD assembly. […] (B) Effects of novel compounds on LBP-filled PXR mutant. HepG2 cells were transiently transfected with CYP3A4 reporter and expression plasmid encoding PXR(S208W/S247W/C284W) and treated as described above. […] Statistically significant differences are illustrated with asterisks. ** p ˂ 0.01, compared to respective treatments with DMSO analyzed by repeated measures one-way ANOVA with Dunnett’s multiple comparisons test.

[1] = system: 335 wild-type protein kinases; assay: Kinase inhibition profiling, selectivity score; type: biochemical
Procedure: (§1) The analysis was performed by ProQinase (Freiburg, Germany).

BTK = molecular target: T2, BTK (Homo sapiens, UniProt Q06187); assay: Kinase profiling; type: biochemical
T2 construct: purchased ProQinase (Freiburg, Germany)
Procedure: as §1

CDK9/CycK = molecular target: T3, CDK9/CycK (Homo sapiens, UniProt P50750); assay: Kinase profiling; type: biochemical
T3 construct: purchased ProQinase (Freiburg, Germany)
Procedure: as §1

DMPK = molecular target: T4, DMPK (Homo sapiens, UniProt Q09013); assay: Kinase profiling; type: biochemical
T4 construct: purchased ProQinase (Freiburg, Germany)
T4 sequence (Q09013 1-629): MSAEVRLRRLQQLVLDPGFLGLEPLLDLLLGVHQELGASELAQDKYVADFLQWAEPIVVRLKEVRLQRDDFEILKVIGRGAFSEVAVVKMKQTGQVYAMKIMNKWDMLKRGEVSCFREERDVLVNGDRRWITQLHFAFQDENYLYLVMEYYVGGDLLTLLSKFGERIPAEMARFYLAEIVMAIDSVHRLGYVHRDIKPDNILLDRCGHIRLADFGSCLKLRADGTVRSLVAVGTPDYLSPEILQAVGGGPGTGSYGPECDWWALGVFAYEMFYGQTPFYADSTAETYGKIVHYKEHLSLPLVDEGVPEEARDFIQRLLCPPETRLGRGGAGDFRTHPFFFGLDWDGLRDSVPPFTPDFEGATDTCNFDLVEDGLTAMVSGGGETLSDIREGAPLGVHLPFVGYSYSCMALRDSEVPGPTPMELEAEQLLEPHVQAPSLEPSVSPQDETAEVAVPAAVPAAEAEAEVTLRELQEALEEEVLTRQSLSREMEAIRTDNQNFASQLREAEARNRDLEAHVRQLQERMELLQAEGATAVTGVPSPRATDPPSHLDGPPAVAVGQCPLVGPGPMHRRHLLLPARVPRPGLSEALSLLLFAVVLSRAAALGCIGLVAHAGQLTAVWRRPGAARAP
Procedure: as §1

FGFR1 = molecular target: T5, FGFR1 (Homo sapiens, UniProt P11362); assay: Kinase profiling; type: biochemical
T5 construct: purchased ProQinase (Freiburg, Germany)
Procedure: as §1

HIPK3 = molecular target: T6, HIPK3 (Homo sapiens, UniProt Q9H422); assay: Kinase profiling; type: biochemical
T6 construct: purchased ProQinase (Freiburg, Germany)
Procedure: as §1

JAK1 = molecular target: T7, JAK1 (Homo sapiens, UniProt P23458); assay: Kinase profiling; type: biochemical
T7 construct: purchased ProQinase (Freiburg, Germany)
Procedure: as §1

MARK1 = molecular target: T8, MARK1 (Homo sapiens, UniProt Q9P0L2); assay: Kinase profiling; type: biochemical
T8 construct: purchased ProQinase (Freiburg, Germany)
Procedure: as §1

MST2 = molecular target: T9, MST2 (Homo sapiens, UniProt Q13188); assay: Kinase profiling; type: biochemical
T9 construct: purchased ProQinase (Freiburg, Germany)
T9 sequence (Q13188 1-491): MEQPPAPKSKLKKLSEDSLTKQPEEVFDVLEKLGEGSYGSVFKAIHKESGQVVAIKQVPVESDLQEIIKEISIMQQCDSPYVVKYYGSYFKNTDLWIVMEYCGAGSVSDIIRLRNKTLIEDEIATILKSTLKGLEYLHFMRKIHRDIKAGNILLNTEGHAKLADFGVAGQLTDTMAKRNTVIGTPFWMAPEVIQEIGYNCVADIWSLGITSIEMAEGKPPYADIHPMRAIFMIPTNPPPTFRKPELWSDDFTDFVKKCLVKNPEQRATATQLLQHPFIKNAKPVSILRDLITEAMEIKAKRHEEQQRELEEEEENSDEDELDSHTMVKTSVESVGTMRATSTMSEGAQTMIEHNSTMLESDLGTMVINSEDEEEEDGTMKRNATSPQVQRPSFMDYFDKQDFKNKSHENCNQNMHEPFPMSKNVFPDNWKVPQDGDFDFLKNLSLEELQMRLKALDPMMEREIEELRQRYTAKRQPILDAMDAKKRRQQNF
Procedure: as §1

PDGFRalpha = molecular target: T10, PDGFRalpha (Homo sapiens, UniProt P16234); assay: Kinase profiling; type: biochemical
T10 construct: purchased ProQinase (Freiburg, Germany)
Procedure: as §1

PIM1 = molecular target: T11, PIM1 (Homo sapiens, UniProt P11309); assay: Kinase profiling; type: biochemical
T11 construct: purchased ProQinase (Freiburg, Germany)
Procedure: as §1

ROCK1 = molecular target: T12, ROCK1 (Homo sapiens, UniProt Q13464); assay: Kinase profiling; type: biochemical
T12 construct: purchased ProQinase (Freiburg, Germany)
Procedure: as §1

RPS6KA5 = molecular target: T13, RPS6KA5 (Homo sapiens, UniProt O75582); assay: Kinase profiling; type: biochemical
T13 construct: purchased ProQinase (Freiburg, Germany)
Procedure: as §1

T2 sequence (Q06187 whole entry): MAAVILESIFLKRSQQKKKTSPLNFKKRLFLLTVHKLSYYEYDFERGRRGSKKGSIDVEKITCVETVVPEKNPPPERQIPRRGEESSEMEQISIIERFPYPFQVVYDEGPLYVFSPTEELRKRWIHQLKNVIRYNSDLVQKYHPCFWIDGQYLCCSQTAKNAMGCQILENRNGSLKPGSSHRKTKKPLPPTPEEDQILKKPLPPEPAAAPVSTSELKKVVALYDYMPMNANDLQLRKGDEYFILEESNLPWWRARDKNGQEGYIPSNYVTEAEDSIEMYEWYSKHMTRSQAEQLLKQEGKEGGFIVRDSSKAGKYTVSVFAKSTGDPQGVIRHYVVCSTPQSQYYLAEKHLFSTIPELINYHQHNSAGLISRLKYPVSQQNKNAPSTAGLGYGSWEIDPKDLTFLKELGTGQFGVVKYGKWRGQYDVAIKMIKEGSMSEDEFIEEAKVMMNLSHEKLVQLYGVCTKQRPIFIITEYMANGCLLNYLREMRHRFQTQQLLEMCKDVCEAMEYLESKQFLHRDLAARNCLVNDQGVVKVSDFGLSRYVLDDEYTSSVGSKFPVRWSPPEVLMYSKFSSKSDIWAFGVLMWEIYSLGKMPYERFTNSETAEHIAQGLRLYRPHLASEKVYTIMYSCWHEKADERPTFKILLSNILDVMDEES
T3 sequence (P50750 whole entry): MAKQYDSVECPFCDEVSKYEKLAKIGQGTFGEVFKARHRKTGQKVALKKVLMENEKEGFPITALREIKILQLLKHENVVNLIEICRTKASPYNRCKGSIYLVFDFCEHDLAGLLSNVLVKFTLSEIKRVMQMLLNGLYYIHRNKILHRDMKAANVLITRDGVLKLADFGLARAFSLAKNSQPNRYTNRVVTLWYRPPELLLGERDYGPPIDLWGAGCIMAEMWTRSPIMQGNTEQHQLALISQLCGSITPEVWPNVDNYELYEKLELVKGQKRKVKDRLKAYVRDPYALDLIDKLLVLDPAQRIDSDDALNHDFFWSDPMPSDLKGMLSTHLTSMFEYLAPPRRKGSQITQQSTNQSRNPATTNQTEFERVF
T3 sequence (O75909 whole entry partner): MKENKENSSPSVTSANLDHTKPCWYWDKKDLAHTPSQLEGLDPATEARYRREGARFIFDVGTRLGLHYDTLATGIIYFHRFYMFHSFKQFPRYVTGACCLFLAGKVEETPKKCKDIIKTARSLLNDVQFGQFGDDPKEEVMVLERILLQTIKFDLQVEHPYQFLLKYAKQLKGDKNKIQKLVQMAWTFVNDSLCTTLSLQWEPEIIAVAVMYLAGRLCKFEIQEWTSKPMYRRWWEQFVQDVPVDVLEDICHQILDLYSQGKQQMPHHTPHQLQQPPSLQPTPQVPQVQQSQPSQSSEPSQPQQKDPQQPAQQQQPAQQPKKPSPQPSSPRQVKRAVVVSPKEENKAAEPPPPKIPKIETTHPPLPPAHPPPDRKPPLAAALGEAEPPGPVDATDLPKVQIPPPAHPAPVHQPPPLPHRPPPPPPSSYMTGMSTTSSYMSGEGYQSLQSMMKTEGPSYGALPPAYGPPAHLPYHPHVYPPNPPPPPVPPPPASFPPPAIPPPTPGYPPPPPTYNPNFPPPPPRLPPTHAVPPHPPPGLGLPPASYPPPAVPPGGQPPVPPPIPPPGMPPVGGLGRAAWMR
T12 sequence (Q13464 whole entry): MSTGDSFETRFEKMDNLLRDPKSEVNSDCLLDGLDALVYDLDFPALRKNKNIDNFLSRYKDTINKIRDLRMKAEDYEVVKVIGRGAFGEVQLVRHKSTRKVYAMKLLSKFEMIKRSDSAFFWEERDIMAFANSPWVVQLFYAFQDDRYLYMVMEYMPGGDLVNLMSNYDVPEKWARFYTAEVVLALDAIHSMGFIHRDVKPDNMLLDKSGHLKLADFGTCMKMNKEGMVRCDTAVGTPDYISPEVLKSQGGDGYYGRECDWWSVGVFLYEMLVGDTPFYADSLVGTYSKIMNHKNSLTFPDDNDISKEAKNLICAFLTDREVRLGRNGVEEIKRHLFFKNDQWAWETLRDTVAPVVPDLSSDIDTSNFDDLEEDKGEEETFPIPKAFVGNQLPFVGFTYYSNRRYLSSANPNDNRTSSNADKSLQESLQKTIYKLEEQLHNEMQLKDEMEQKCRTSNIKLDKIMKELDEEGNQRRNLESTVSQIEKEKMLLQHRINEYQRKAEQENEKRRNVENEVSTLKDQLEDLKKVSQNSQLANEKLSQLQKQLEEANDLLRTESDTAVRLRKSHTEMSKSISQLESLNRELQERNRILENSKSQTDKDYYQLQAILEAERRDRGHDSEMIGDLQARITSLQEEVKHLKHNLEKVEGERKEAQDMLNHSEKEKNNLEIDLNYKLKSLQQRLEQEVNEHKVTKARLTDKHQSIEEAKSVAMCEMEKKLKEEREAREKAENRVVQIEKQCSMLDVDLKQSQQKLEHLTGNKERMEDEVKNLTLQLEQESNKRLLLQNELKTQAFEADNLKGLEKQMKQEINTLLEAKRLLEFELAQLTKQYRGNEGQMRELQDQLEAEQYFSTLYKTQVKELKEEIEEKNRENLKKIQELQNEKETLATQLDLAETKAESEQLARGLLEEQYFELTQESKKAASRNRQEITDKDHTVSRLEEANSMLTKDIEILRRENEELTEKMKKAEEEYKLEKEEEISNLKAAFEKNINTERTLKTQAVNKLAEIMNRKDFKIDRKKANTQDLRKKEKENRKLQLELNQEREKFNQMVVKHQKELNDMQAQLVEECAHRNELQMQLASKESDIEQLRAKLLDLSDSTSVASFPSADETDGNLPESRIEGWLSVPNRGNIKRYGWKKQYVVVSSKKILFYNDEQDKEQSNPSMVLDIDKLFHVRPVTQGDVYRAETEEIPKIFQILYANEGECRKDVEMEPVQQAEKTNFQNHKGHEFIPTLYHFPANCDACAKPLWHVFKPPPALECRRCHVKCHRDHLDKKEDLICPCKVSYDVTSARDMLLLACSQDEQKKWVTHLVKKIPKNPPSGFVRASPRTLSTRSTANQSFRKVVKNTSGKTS
T13 sequence (O75582 whole entry): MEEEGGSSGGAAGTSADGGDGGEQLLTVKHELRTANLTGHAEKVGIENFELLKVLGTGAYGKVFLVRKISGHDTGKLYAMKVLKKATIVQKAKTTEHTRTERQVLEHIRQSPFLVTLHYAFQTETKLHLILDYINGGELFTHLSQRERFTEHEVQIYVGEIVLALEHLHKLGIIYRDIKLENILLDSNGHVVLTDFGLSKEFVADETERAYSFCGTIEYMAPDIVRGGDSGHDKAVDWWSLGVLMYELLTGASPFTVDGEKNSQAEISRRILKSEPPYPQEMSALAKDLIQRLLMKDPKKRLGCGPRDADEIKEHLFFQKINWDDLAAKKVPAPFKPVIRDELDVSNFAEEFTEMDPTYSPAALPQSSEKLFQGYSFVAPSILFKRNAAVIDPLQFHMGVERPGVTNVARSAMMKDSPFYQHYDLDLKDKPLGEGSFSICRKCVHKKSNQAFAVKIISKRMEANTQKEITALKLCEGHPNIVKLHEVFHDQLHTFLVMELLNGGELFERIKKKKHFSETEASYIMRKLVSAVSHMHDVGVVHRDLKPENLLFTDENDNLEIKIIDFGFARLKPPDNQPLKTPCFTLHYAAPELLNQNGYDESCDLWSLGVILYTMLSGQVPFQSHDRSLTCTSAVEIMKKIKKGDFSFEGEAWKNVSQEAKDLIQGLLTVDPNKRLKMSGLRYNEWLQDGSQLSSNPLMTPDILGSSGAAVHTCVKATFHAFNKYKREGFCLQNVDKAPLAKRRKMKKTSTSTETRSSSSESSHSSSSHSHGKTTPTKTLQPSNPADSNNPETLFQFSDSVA
T11 sequence (P11309 whole entry): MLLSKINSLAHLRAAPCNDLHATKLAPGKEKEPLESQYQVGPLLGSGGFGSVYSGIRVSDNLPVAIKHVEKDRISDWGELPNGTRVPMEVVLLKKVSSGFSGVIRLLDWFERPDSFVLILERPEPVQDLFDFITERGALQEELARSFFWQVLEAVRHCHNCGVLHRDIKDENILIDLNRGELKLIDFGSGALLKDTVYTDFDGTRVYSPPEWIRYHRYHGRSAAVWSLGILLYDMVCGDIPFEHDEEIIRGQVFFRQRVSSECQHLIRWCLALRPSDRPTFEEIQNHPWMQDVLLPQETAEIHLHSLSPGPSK
T5 sequence (P11362 22-822): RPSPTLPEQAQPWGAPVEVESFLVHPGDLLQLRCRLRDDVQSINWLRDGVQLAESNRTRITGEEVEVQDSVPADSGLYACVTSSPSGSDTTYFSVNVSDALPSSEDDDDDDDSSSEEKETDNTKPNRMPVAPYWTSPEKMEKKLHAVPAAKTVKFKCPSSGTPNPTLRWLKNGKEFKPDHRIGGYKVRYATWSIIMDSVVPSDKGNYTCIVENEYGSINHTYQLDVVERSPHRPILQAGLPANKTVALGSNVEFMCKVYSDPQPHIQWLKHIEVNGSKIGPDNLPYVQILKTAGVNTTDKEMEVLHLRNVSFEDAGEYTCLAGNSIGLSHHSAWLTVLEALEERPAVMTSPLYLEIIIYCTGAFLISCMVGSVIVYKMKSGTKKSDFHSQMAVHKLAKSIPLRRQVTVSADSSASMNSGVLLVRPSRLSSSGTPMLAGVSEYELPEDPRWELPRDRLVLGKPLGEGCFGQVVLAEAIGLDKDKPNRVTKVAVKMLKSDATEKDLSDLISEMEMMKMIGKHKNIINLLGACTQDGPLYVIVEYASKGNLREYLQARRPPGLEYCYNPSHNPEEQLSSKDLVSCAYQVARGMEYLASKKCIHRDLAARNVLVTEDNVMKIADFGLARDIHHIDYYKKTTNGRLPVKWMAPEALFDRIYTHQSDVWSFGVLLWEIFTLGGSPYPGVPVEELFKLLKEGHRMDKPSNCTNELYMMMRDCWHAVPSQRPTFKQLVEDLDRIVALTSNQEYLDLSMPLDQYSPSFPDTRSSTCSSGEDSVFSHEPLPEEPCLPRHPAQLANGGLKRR

| Compound | assembly of the PXR LBD (PXR LBD) | Selectivity Score (< 50 % residual activity) ([1]; 1.0E-05 M) | Selectivity Score (< 50 % residual activity) ([1]; 1.0E-06 M) | Residual activity (BTK; 1.0E-05 M) | Residual activity (BTK; 1.0E-06 M) | Residual activity (CDK9/CycK; 1.0E-05 M) | Residual activity (CDK9/CycK; 1.0E-06 M) | Residual activity (DMPK; 1.0E-05 M) | Residual activity (DMPK; 1.0E-06 M) | Residual activity (FGFR1; 1.0E-05 M) | Residual activity (FGFR1; 1.0E-06 M) | Residual activity (HIPK3; 1.0E-05 M) | Residual activity (HIPK3; 1.0E-06 M) | Residual activity (JAK1; 1.0E-05 M) | Residual activity (JAK1; 1.0E-06 M) | Residual activity (MARK1; 1.0E-05 M) | Residual activity (MARK1; 1.0E-06 M) | Residual activity (MST2; 1.0E-05 M) | Residual activity (MST2; 1.0E-06 M) | Residual activity (PDGFRalpha; 1.0E-05 M) | further results |
| --- | --- | --- | --- | --- | --- | --- | --- | --- | --- | --- | --- | --- | --- | --- | --- | --- | --- | --- | --- | --- | --- |
| O=C(Cc1ccccc1)Nc1ccc(F)c(Nc2ccc3c(c2)CCCCC3=O)c1 [Compound 100] | induced the assembly of the PXR LBD | 0.015 | 0.003 | 78 % of control | 99 % of control | 89 % of control | 91 % of control | 100 % of control | 101 % of control | 78 % of control | 93 % of control | 87 % of control | 88 % of control | 85 % of control | 88 % of control | 90 % of control | 91 % of control | 82 % of control | 94 % of control | 95 % of control | Residual activity (PDGFRalpha; 1.0E-06 M): 107 % of control; Residual activity (PIM1; 1.0E-05 M): 74 % of control; Residual activity (PIM1; 1.0E-06 M): 88 % of control; Residual activity (ROCK1; 1.0E-05 M): 92 % of control; Residual activity (ROCK1; 1.0E-06 M): 99 % of control; Residual activity (RPS6KA5; 1.0E-05 M): 97 % of control; Residual activity (RPS6KA5; 1.0E-06 M): 104 % of control |
| Cc1ccc(NC(=O)Cc2ccccc2)cc1Nc1ccc2c(c1)CCCCC2=O [Compound 73] | induced the assembly of the PXR LBD |  |  |  |  |  |  |  |  |  |  |  |  |  |  |  |  |  |  |  |  |
| O=C(Nc1ccc(F)c(Nc2ccc3c(c2)CCCCC3=O)c1)c1cccc(F)c1 [Compound 109] | induced the assembly of the PXR LBD | 0.024 | 0.012 | 91 % of control | 99 % of control | 95 % of control | 90 % of control | 94 % of control | 99 % of control | 79 % of control | 93 % of control | 90 % of control | 89 % of control | 88 % of control | 77 % of control | 99 % of control | 87 % of control | 75 % of control | 90 % of control | 92 % of control | Residual activity (PDGFRalpha; 1.0E-06 M): 96 % of control; Residual activity (PIM1; 1.0E-05 M): 70 % of control; Residual activity (PIM1; 1.0E-06 M): 96 % of control; Residual activity (ROCK1; 1.0E-05 M): 102 % of control; Residual activity (ROCK1; 1.0E-06 M): 99 % of control; Residual activity (RPS6KA5; 1.0E-05 M): 93 % of control; Residual activity (RPS6KA5; 1.0E-06 M): 96 % of control |
